Where a SMILES comes first, the peptide text is derived from it. Bridges are numbered along the chain shown (N, C = ends). [ ]: non-standard residue; d: D form. Tle = CC(C)(C)[C@H](N)C(=O)O; dDab = NCC[C@@H](N)C(=O)O; Orn = NCCC[C@H](N)C(=O)O; Dab = NCC[C@H](N)C(=O)O; Dap = NC[C@H](N)C(=O)O
Experiments:
Type in all cases: cell-based
[1] = system: Acinetobacter baumannii DSM 30008; details: DSM 30008
Procedure: (§1) Stock solutions were kept at +4° C., light protected.
(§2) The selective antimicrobial activities of the peptides were determined in 96-well plates (Greiner, polystyrene) by the standard NCCLS broth microdilution method (National Committee for Clinical Laboratory Standards 1993. Methods for dilution antimicrobial susceptibility tests for bacteria that grow aerobically, 3rd ed. Approved standard M7-A6; National Committee for Clinical laboratory standards, Wayne, Pa.) with slight modifications. Inocula of the microorganisms were diluted into Mueller-Hinton II (MH, cation adjusted) broth and compared with a 0.5 McFarland standard to give appr. 10^6 colony forming units (CFU)/mL. Aliquots (90 μl) of inoculate were added to 10 μl of MH broth+P-80 (Polysorbate 80, 0.002% final concentration) containing the peptide in serial two-fold dilutions. The following microorganisms were used to determine antibiotic selectivity of the peptides: Escherichia coli ATCC 25922, Klebsiella pneumoniae ATCC 13883 and Acinetobacter baumannii DSM 30008.

[2] = system: Klebsiella pneumoniae ATCC 13883; details: ATCC 13883
Procedure: as §1, §2

[3] = system: Escherichia coli ATCC 25922; details: ATCC 25922
Procedure: as §1, §2

[4] = system: human red blood cells (hRBC); experiment: Hemolysis of human red blood cells; details: red cells of human, 1 h, 100
Procedure: as §1
Percent hemolysis was calculated as follows: (OD540peptide/OD540H2O)×100%.

SMILES	Acinetobacter baumannii DSM 30008 MIC [1]	Klebsiella pneumoniae ATCC 13883 MIC [2]	Escherichia coli ATCC 25922 MIC [3]	Hemolysis at 100 μg/mL [4]
CC(C)C[C@@H]1NC(=O)[C@H](CCCN)NC(=O)[C@H]2CCCN2C(=O)[C@H](C(C)C)NC(=O)[C@@H]2CSSC[C@H](NC1=O)C(=O)N[C@@H](Cc1ccc(O)cc1)C(=O)N[C@@H](C)C(=O)N[C@@H](CCCN)C(=O)N[C@H](CCN)C(=O)N[C@@H](CCN)C(=O)N[C@@H](Cc1c[nH]c3ccccc13)C(=O)N[C@@H](C)C(=O)N[C@@H](C(C)C)C(=O)N2 [Example 4, cyclo(-Leu-Cys-Tyr-Ala-Orn-^DDab-Dab-Trp-Ala-Val-Cys-Val-^DPro-Orn-)] (HELM PEPTIDE1{A.[Orn].[NCC[C@@H](N[*:1])C(=O)[*:2]].[Dab].W.A.V.C.V.[dP].[Orn].L.C.Y}$PEPTIDE1,PEPTIDE1,8:R3-13:R3|PEPTIDE1,PEPTIDE1,1:R1-14:R2$$$V2.0)	2 µg/mL	4 µg/mL	2 µg/mL	2.5%
CC(C)C[C@@H]1NC(=O)[C@@H]2CCCN2C(=O)[C@H]2CCCN2C(=O)[C@H](CO)NC(=O)[C@@H]2CNC(=O)C[C@H](NC1=O)C(=O)N[C@@H](Cc1ccc(O)cc1)C(=O)N[C@@H](CCN)C(=O)N[C@@H](CCCN)C(=O)N[C@H](CCN)C(=O)N[C@@H](CCN)C(=O)N[C@@H](Cc1c[nH]c3ccccc13)C(=O)N[C@@H](CCN)C(=O)N[C@@H](C(C)(C)C)C(=O)N2 [Example 21, cyclo(-Leu-Asp-Tyr-Dab-Orn-^DDab-Dab-Trp-Dab-tBuGly-Dap-Ser-^DPro-Pro-)] (cyclo(LDY[Dab][Orn][dDab][Dab]W[Dab][Tle][Dap]S[dP]P); lactam 2-11)	4 µg/mL	0.5 µg/mL	2 µg/mL	1%
CC(C)C[C@@H]1NC(=O)[C@H](CN)NC(=O)[C@H]2CCCN2C(=O)[C@H](C(C)C)NC(=O)[C@@H]2CSSC[C@H](NC1=O)C(=O)N[C@@H](Cc1ccc(O)cc1)C(=O)N[C@@H](C)C(=O)N[C@@H](CCCN)C(=O)N[C@H](CCN)C(=O)N[C@@H](CCN)C(=O)N[C@@H](Cc1c[nH]c3ccccc13)C(=O)N[C@@H](C)C(=O)N[C@@H](C(C)C)C(=O)N2 [Example 6, cyclo(-Leu-Cys-Tyr-Ala-Orn-^DDab-Dab-Trp-Ala-Val-Cys-Val-^DPro-Dap-)] (HELM PEPTIDE1{A.[Orn].[NCC[C@@H](N[*:1])C(=O)[*:2]].[Dab].W.A.V.C.V.[dP].[NC[C@H](N[*:1])C(=O)[*:2]].L.C.Y}$PEPTIDE1,PEPTIDE1,8:R3-13:R3|PEPTIDE1,PEPTIDE1,1:R1-14:R2$$$V2.0)	1.5 µg/mL	2 µg/mL	2 µg/mL	5%
CC(C)(C)[C@@H]1NC(=O)[C@H](CCN)NC(=O)[C@H](Cc2c[nH]c3ccccc23)NC(=O)[C@H](CCN)NC(=O)[C@@H](CCN)NC(=O)[C@H](CCN)NC(=O)[C@H](CCN)NC(=O)[C@H](Cc2ccc(O)cc2)NC(=O)[C@@H]2CCNC(=O)C[C@H](NC1=O)C(=O)N[C@@H](CO)C(=O)N1CCC[C@@H]1C(=O)N1CCC[C@H]1C(=O)N[C@@H](Cc1c[nH]c3ccccc13)C(=O)N2 [Example 14, cyclo(-Trp-Dab-Tyr-Dab-Dab-^DDab-Dab-Trp-Dab-tBuGly-Asp-Ser-^DPro-Pro-)] (HELM PEPTIDE1{W.[Dab].Y.[Dab].[Dab].[NCC[C@@H](N[*:1])C(=O)[*:2]].[Dab].W.[Dab].[CC(C)(C)[C@H](N[*:1])C(=O)[*:2]].D.S.[dP].P}$PEPTIDE1,PEPTIDE1,2:R3-11:R3|PEPTIDE1,PEPTIDE1,1:R1-14:R2$$$V2.0)	0.5 µg/mL	0.25 µg/mL	0.25 µg/mL	2%
